According to US9610291B2, “Treatment of respiratory depression” (NUMEDICUS LIMITED, priority 2012, dated 2017):

How the values were obtained:
conscious rats = test: Opiate-induced respiratory depression; whole-body plethysmography in conscious rats; type: in vivo; details: for increase in the respiratory activity: before morphine
Method: Whole-body plethysmography is used to assess respiratory rate (fR, in breaths per minute) and tidal volume (VT, in microliters per gram) in conscious rats. Animals are placed in a recording chamber (˜700 ml) flushed continuously with a humidified mixture of 79% nitrogen and 21% oxygen (temperature 22-24° C.). Level of carbon dioxide (CO2) in the chamber is monitored online using a fast-response CO2 analyser. Animals are allowed ˜40 min to acclimatize to the chamber environment at normoxia-normocapnia (21% oxygen, 79% nitrogen and <0.3% CO2) before measurements of baseline ventilation are taken.
Respiratory depression is induced in conscious rats by intramuscular (10 mg/kg) administration of morphine.
Data are acquired using Power1401 interface, saved and analyzed off-line using Spike2 software (CED Limited, Cambridge, UK).
Parameters measured included fR—respiratory rate (in breaths per minute); VT—tidal volume (in microliters per gram of body weight); VE—minute ventilation fR×VT (in microliters per gram of body weight per minute).
The data were analysed by ANOVA followed by the Tukey-Kramer's post hoc test, Student's t-test, or non-parametric Wilcoxon-Mann-Whitney U test, as appropriate. Data are presented as means±SEM.

[1] = test system: Methyl-CpG-binding protein 2 (Mecp) null mice; test: Rett's syndrome model; plethysmography in Mecp2 null mice; type: in vivo; details: tianeptine 10 mg/kg i.p. in saline, 5.6 Hz before treatment, p=0.037, paired t test
Method: Methyl-CpG-binding protein 2 (Mecp) null mice were of the B6.129P2(C)-Mecp2^tm1.1Bird strain. Mice were produced and genotyped using published methods (Miralvès J, Magdeleine E, Joly E. Design of an improved set of oligonucleotide primers for genotyping MeCP2^tm1.1Bird KO mice by PCR. Mol Neurodegener. 2007; 2:16; Bissonnette J M, Knopp S J. Separate respiratory phenotypes in methyl-CpG-binding protein 2 (Mecp2) deficient mice. Pediatr Res. 2006; 59:513-518).
Breathing was recorded over a 60 min control period following drug treatment in the same way as for the respiratory depression experiments, with the same equipment and software. After the recording sessions, mice were euthanized with CO2.

## CN1c2ccccc2C(NCCCCCCC(=O)O)c2ccc(Cl)cc2S1(=O)=O (centres unmarked) [tianeptine, 7-[(3-chloro-6,11-dihydro-6-methyl-dibenzo[c,f][1,2]thiazepin-11-yl)amino]heptanoic acid S,S-dioxide]
Conscious rats; tianeptine 2 mg/kg ip, 5 min after administration, conscious rats, p<0.05
  increase in the respiratory activity: ~30%
Conscious rats; tianeptine 2 mg/kg ip, morphine 10 mg/kg intramuscular 5 minutes after tianeptine, conscious rats
  morphine-induced respiratory depression: appears to prevent morphine-induced respiratory depression
Conscious rats; tianeptine 10 mg/kg, rats
  increase in the respiratory activity: not observed
Conscious rats; tianeptine 10 mg/kg, followed by morphine 10 mg/kg intramuscular, rats
  morphine-induced respiratory depression: prevented
[1]
  peak dominant frequency (respiratory frequency pattern) after drug treatment: 4.8 Hz
